Assay results: patent US10538555B2, “Macrocyclic inhibitors of the PD-1/PD-L1 and CD80(B7-1)/PD-L1 protein/protein interactions” (BRISTOL-MYERS SQUIBB COMPANY, priority 2014, dated 2020)
Where a SMILES comes first, the peptide text is derived from it. Bridges are numbered along the chain shown (N, C = ends). [ ]: non-standard residue; d: D form. ξ: configuration not given here. Trp(1-CH2COOH) = N[C@@H](Cc1cn(CC(=O)O)c2ccccc12)C(=O)O; Phe(3,4,5-F3) = N[C@@H](Cc1cc(F)c(F)c(F)c1)C(=O)O; d(cisHyp) = O=C(O)[C@H]1C[C@@H](O)CN1; Hyp = O=C(O)[C@@H]1C[C@@H](O)CN1; NMeF = CN[C@@H](Cc1ccccc1)C(=O)O; NMeNle = CCCC[C@H](NC)C(=O)O; NMeA = CN[C@@H](C)C(=O)O; Dap = NC[C@H](N)C(=O)O; ξC = NC(CS)C(=O)O

The compounds below were run against T1, Human PD-L1/PD-1 (Homo sapiens, UniProt Q9NZQ7) (assay: HTRF Human PD-L1/PD-1 binding assay (PD-1-Ig/PD-L1-His)). Details: PD-L1-His 10 nM, PD-1-Ig 20 nM; class symbol; read-out: HTRF Human PD-L1/PD-1 Binding Assay IC50 Range.
T1 construct: TVMV protease cleavage site (C); made in house; host or cells: HEK293T cells
Description: Methods for Testing the Ability of Macrocyclic Peptides to Compete for the Binding of PD-1 to PD-L1 Using Homogenous Time-Resolved Fluorescence (HTRF) Binding Assays
The ability of the macrocyclic peptides of the present disclosure to bind to PD-L1 was investigated using a PD-1/PD-L1 Homogenous Time-Resolved Fluorescence (HTRF) binding assay.
Homogenous Time-Resolved Fluorescence (HTRF) Assays of Binding of Soluble PD-1 to Soluble PD-L1. Soluble PD-1 and soluble PD-L1 refers to proteins with carboxyl-end truncations that remove the transmembrane-spanning regions and are fused to heterologous sequences, specifically the Fc portion of the human immunoglobuling G sequence (Ig) or the hexahistidine epitope tag (His). All binding studies were performed in an HTRF assay buffer consisting of dPBS supplemented with 0.1% (w/v) bovine serum albumin and 0.05% (v/v) Tween-20. For the PD-1-Ig/PD-L1-His binding assay, inhibitors were pre-incubated with PD-L1-His (10 nM final) for 15 m in 4 μl of assay buffer, followed by addition of PD-1-Ig (20 nM final) in 1 μl of assay buffer and further incubation for 15 m. PD-L1 fusion proteins from either human, cynomolgus macaques, or mouse were used. HTRF detection was achieved using europium crypate-labeled anti-Ig monoclonal antibody (1 nM final) and allophycocyanin (APC) labeled anti-His monoclonal antibody (20 nM final). Antibodies were diluted in HTRF detection buffer and 5 μl was dispensed on top of binding reaction. The reaction was allowed to equilibrate for 30 minutes and signal (665 nm/620 nm ratio) was obtained using an EnVision fluorometer. Additional binding assays were established between PD-1-Ig/PD-L2-His (20 and 5 nM, respectively), CD80-His/PD-L1-Ig (100 and 10 nM, respectively) and CD80-His/CTLA4-Ig (10 and 5 nM, respectively). Competition studies between biotinylated Compound No. 71 and human PD-L1-His were performed as follows. Macrocyclic peptide inhibitors were pre-incubated with PD-L1-His (10 nM final) for 60 minutes in 4 μl of assay buffer followed by addition of biotinylated Compound No. 71 (0.5 nM final) in 1 μl of assay buffer. Binding was allowed to equilibrate for 30 minutes followed by addition of europium crypated labeled Streptavidin (2.5 pM final) and APC-labeled anti-His (20 nM final) in 5 μl of HTRF buffer. The reaction was allowed to equilibrate for 30 m and signal (665 nm/620 nm ratio) was obtained using an EnVision fluorometer.
Recombinant Proteins. Carboxyl-truncated human PD-1 (amino acids 25-167) with a C-terminal human Ig epitope tag [hPD-1 (25-167)-3S-IG] and human PD-L1 (amino acids 18-239) with a C-terminal His epitope tag [hPD-L1([…])-tobacco vein mottling virus protease cleavage site (TVMV)-His] were expressed in HEK293T cells and purified sequentially by rProteinA affinity chromatography and size exclusion chromatography.

T1 sequence (Q9NZQ7 with tags, fused parts or gaps): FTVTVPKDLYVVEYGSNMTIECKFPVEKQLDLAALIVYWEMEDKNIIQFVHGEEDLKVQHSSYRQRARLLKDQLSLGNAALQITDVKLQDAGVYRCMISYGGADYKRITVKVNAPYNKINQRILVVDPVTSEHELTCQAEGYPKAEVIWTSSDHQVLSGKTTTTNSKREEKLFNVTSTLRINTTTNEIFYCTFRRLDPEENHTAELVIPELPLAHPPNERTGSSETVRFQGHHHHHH

SMILES | IC50 [nM]
CCCC[C@H]1C(=O)N2C[C@H](O)C[C@@H]2C(=O)N[C@@H](CC(=O)O)C(=O)N[C@@H](C(C)C)C(=O)N(C)[C@@H](Cc2ccccc2)C(=O)N[C@@H](Cc2ccc(O)cc2)C(=O)N2C[C@H](O)C[C@@H]2C(=O)N[C@@H](Cc2c[nH]c3ccccc23)C(=O)N[C@@H](Cc2ccc(O)cc2)C(=O)N[C@@H](CN)C(=O)N[C@H](C(=O)NCC(N)=O)CSCC(=O)N[C@@H](Cc2cc(F)c(F)c(F)c2)C(=O)N(C)[C@@H](Cc2ccccc2)C(=O)N1C [Example 9325] ({CH2CO}-[Phe(3,4,5-F3)][NMeF][NMeNle][d(cisHyp)]DV[NMeF]Y[d(cisHyp)]WY[Dap]CG-NH2; thioether N-13) | 1 to 9.9
CCCC[C@H]1C(=O)N(C)[C@@H](CCCC)C(=O)N[C@@H](CCC(=O)O)C(=O)NC(C(=O)NCC(N)=O)CSCC(=O)N[C@@H](Cc2ccc(O)cc2)C(=O)N(C)[C@@H](C)C(=O)N[C@@H](CC(N)=O)C(=O)N2CCC[C@H]2C(=O)N[C@@H](Cc2c[nH]cn2)C(=O)N[C@@H](CC(N)=O)C(=O)N2C[C@H](O)C[C@H]2C(=O)N[C@@H](Cc2c[nH]c3ccccc23)C(=O)N[C@@H](CO)C(=O)N[C@@H](Cc2c[nH]c3ccccc23)C(=O)N1C (stereo partly drawn) [Example 9171] ({CH2CO}-Y[NMeA]NPHN[Hyp]WSW[NMeNle][NMeNle]E[ξC]G-NH2; thioether N-14) | 1 to 9.9
CCCC[C@H]1C(=O)N(C)[C@@H](CCCC)C(=O)N[C@@H](CC(C)C)C(=O)N[C@H](C(=O)NCC(N)=O)CSCC(=O)N[C@@H](Cc2ccc(O)cc2)C(=O)N(C)[C@@H](C)C(=O)N[C@@H](CC(N)=O)C(=O)N2CCC[C@H]2C(=O)N[C@@H](CN)C(=O)N[C@@H](CC(C)C)C(=O)N2C[C@H](O)C[C@H]2C(=O)N[C@@H](Cc2c[nH]c3ccccc23)C(=O)N[C@@H](CCCCN)C(=O)N[C@@H](Cc2cn(CC(=O)O)c3ccccc23)C(=O)N1C [Example 6296] ({CH2CO}-Y[NMeA]NP[Dap]L[Hyp]WK[Trp(1-CH2COOH)][NMeNle][NMeNle]LCG-NH2; thioether N-14) | 1 to 9.9

The remaining lines, values ahead:

IC50 [nM] | SMILES
10 to 99.9 | CCCC[C@H]1C(=O)N2C[C@H](O)C[C@@H]2C(=O)N[C@@H](CC(=O)O)C(=O)N[C@@H](C(C)C)C(=O)N(C)[C@@H](Cc2ccccc2)C(=O)N[C@@H](Cc2ccc(O)cc2)C(=O)N2C[C@H](O)C[C@@H]2C(=O)N[C@@H](Cc2c[nH]c3ccccc23)C(=O)N[C@@H](Cc2ccc(O)cc2)C(=O)N[C@@H](CC(=O)O)C(=O)N[C@H](C(=O)NCC(N)=O)CSCC(=O)N[C@@H](Cc2cc(F)c(F)c(F)c2)C(=O)N(C)[C@@H](Cc2ccccc2)C(=O)N1C [Example 9327] ({CH2CO}-[Phe(3,4,5-F3)][NMeF][NMeNle][d(cisHyp)]DV[NMeF]Y[d(cisHyp)]WYDCG-NH2; thioether N-13)
100 to 990 | CCCC[C@H]1C(=O)N(C)[C@@H](CCCC)C(=O)N[C@@H](CCC(=O)O)C(=O)NC(C(=O)NCC(N)=O)CSCC(=O)N[C@@H](Cc2ccc(O)cc2)C(=O)N(C)[C@@H](C)C(=O)N[C@@H](CC(N)=O)C(=O)N2CCC[C@H]2C(=O)N[C@@H](Cc2c[nH]cn2)C(=O)N[C@@H](CC(N)=O)C(=O)N2CCC[C@H]2C(=O)N[C@@H](Cc2c[nH]c3ccccc23)C(=O)N[C@@H](CN)C(=O)N[C@@H](Cc2c[nH]c3ccccc23)C(=O)N1C (stereo partly drawn) [Example 9178] ({CH2CO}-Y[NMeA]NPHNPW[Dap]W[NMeNle][NMeNle]E[ξC]G-NH2; thioether N-14)

Same assay, conditions: PD-L1-His 10 nM, PD-1-Ig 20 nM; read-out: HTRF Human PD-L1/PD-1 Binding Assay IC50

IC50 [nM] | SMILES
468 | CCCC[C@H]1C(=O)N(C)[C@@H](CCCC)C(=O)N[C@@H](C)C(=O)N[C@H](C(=O)NCC(N)=O)CSCC(=O)N[C@@H](Cc2ccc(O)cc2)C(=O)N2CCCC[C@H]2C(=O)N[C@@H](CC(N)=O)C(=O)N2CCC[C@H]2C(=O)N[C@@H](Cc2cnc[nH]2)C(=O)N[C@@H](CCC(N)=O)C(=O)N2CCNC[C@H]2C(=O)N[C@@H](Cc2c[nH]c3ccccc23)C(=O)N[C@@H](CO)C(=O)N[C@@H](Cc2c[nH]c3ccccc23)C(=O)N1C [Example 1276]
